Assay results: patent US20060234942A1, “Use of at least one $g(a)62 casein peptide with angiotensin i converting enzyme inhibiting activity for preparing medicines, food products and food complements” (priority 2002, published 2006)
Several values for one entry are separate records, joined by “and”; a condition that tells them apart may be missing. Equal values may be shown once. Residues, ends and D or L forms follow the SMILES beside them.

Assays:
[1] = target: angiotensin I converting enzyme (ACE) (Homo sapiens, UniProt P12821); test: biochemical; details: for IC50: IC50 (μM), synthetic peptides, tested in triplicate, deduced from linearized inhibition curve; for inhibition at 50 µM: primary amine or captopril concentration equal to 50 μM, chromatographic peaks collected from trypsic hydrolysate of αS2 casein, tested twice
bacteria = details: Zucht et al. (10); Recio and Visser (11); cited from earlier work
[2] = target: angiotensin I converting enzyme (Homo sapiens, UniProt P12821); details: Maeno et al. (13); read-out: IC50, quantity of peptide needed for inhibiting 50% of the enzyme activity; cited from earlier work
[3] = system: spontaneously hypertensive rats; details: 6 hours after oral administration of 1 mg synthesized peptide per kg, Maeno et al. (13); cited from earlier work

Sequence of angiotensin I converting enzyme (P12821 30-1306): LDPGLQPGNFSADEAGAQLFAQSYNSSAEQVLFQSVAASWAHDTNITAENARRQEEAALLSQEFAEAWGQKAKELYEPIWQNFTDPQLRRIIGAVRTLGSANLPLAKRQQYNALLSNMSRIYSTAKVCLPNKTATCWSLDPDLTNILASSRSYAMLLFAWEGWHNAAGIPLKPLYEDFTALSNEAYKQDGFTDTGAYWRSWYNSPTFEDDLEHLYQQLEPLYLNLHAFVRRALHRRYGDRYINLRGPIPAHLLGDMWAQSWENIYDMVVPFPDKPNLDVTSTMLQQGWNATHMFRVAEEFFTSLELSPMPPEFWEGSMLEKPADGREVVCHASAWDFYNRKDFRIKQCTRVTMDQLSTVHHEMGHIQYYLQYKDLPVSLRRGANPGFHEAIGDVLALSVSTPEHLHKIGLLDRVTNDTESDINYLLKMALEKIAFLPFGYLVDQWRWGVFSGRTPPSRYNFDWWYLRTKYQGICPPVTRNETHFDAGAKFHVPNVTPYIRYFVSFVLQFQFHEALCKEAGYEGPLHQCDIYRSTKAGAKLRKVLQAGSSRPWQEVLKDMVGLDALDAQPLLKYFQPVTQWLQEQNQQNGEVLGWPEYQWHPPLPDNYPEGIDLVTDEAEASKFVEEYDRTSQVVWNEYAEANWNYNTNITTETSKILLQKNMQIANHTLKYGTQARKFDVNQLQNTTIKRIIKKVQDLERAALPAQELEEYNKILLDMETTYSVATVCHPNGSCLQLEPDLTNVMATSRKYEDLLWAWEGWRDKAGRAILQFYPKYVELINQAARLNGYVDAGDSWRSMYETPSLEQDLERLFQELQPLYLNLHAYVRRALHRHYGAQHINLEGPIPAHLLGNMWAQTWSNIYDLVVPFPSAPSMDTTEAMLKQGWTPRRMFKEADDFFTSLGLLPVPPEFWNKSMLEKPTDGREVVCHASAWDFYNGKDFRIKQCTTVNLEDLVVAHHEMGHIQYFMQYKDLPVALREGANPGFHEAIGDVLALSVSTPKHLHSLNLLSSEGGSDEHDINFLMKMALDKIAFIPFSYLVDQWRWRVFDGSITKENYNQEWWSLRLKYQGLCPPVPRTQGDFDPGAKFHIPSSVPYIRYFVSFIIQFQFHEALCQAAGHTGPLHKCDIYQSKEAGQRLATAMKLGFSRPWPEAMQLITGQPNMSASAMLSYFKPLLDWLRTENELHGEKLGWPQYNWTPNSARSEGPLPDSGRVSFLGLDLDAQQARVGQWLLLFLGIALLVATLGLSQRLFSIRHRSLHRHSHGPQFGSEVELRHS
Sequence of angiotensin I converting enzyme (ACE) (P12821 30-1306, species assumed): as the sequence (P12821 30-1306) above

| IC50 [1] | inhibition at 50 µM [1] | Compound | other results |
| --- | --- | --- | --- |
| < 60 µM | – | CC[C@H](C)[C@H](NC(=O)[C@H](C)NC(=O)[C@H](CCSC)NC(=O)[C@@H](N)CC(N)=O)C(=O)N[C@@H](CC(N)=O)C(=O)N1CCC[C@H]1C(=O)O [CNαS2-(f25-30), Asn-Met-Ala-Ile-Asn-Pro] (H-NMAINP-OH) | – |
| < 60 µM | 42.5% | CC[C@H](C)[C@H](NC(=O)[C@H](C)NC(=O)[C@H](CCSC)NC(=O)[C@@H](N)CC(N)=O)C(=O)N[C@@H](CC(N)=O)C(=O)N1CCC[C@H]1C(=O)N[C@@H](CO)C(=O)N[C@@H](CCCCN)C(=O)O [CNαS2-(f25-32)] (H-NMAINPSK-OH; N-terminus and C-terminus assumed) | – |
| – | 32.2% | CC[C@H](C)[C@H](NC(=O)[C@H](CCC(=O)O)NC(=O)[C@H](CC(N)=O)NC(=O)[C@H](CC(C)C)NC(=O)[C@H](C)N)C(=O)N[C@@H](CC(N)=O)C(=O)N[C@@H](CCC(N)=O)C(=O)N[C@@H](Cc1ccccc1)C(=O)N[C@@H](Cc1ccc(O)cc1)C(=O)O [CNαS2-(f81-89)] (H-ALNEINQFY-OH; N-terminus and C-terminus assumed) | – |
| – | 27.2% | CC[C@H](C)[C@H](NC(=O)[C@H](CCC(=O)O)NC(=O)[C@H](CC(N)=O)NC(=O)[C@H](CC(C)C)NC(=O)[C@H](C)N)C(=O)N[C@@H](CC(N)=O)C(=O)N[C@@H](CCC(N)=O)C(=O)N[C@@H](Cc1ccccc1)C(=O)N[C@@H](Cc1ccc(O)cc1)C(=O)N[C@@H](CCC(N)=O)C(=O)N[C@@H](CCCCN)C(=O)O [CNαS2-(f81-91)] (H-ALNEINQFYQK-OH; N-terminus and C-terminus assumed) | – |
| < 60 µM | > 70% | CC(C)C[C@H](NC(=O)[C@H](Cc1ccc(O)cc1)NC(=O)[C@H](CCC(N)=O)NC(=O)[C@@H]1CCCN1C(=O)[C@@H](N)Cc1ccccc1)C(=O)N[C@@H](CCC(N)=O)C(=O)N[C@@H](Cc1ccc(O)cc1)C(=O)O [CNαS2-(f92-98), Phe-Pro-Gln-Tyr-Leu-Gln-Tyr] (H-FPQYLQY-OH; N-terminus and C-terminus assumed) | – |
| < 60 µM | – | CC(C)C[C@H](NC(=O)[C@H](C)NC(=O)[C@@H](N)Cc1ccccc1)C(=O)N1CCC[C@H]1C(=O)O [CNαS2-(f174-177), Phe-Ala-Leu-Pro] (H-FALP-OH) | – |
| < 60 µM and 4.3 µM | > 70% | CC(C)C[C@H](NC(=O)[C@H](C)NC(=O)[C@@H](N)Cc1ccccc1)C(=O)N1CCC[C@H]1C(=O)N[C@@H](CCC(N)=O)C(=O)N[C@@H](Cc1ccc(O)cc1)C(=O)O [CNαS2-(f174-179), Phe-Ala-Leu-Pro-Gln-Tyr] (H-FALPQY-OH; N-terminus and C-terminus assumed) | – |
| < 60 µM and 4.3 µM | > 70% | CC(C)C[C@H](NC(=O)[C@H](Cc1ccc(O)cc1)NC(=O)[C@H](CCC(N)=O)NC(=O)[C@@H]1CCCN1C(=O)[C@H](CC(C)C)NC(=O)[C@H](C)NC(=O)[C@@H](N)Cc1ccccc1)C(=O)N[C@@H](CCCCN)C(=O)O [CNαS2-(f174-181)] (H-FALPQYLK-OH; N-terminus and C-terminus assumed) | – |
| < 60 µM | > 70% | CC(C)[C@H](NC(=O)[C@@H](N)[C@@H](C)O)C(=O)N[C@@H](Cc1ccc(O)cc1)C(=O)O [CNαS2-(f182-184), Thr-Val-Tyr] (H-Thr-Val-Tyr-OH; N-terminus and C-terminus assumed) | – |
| – | – | CNαS2-(f164-179): αS2 casein peptide with antibacterial activity, Recio and Visser (11) (LKKISQRYQKFALPQY; UniProt P02663 179-194, looked up, fragment) | antibacterial activity (bacteria): antibacterial activity |
| – | – | CNαS2-(f165-203): αS2 casein peptide with antibacterial activity, Zucht et al. (10) (KKISQRYQKFALPQYLKTVYQHQKAMKPWIQPKTKVIPY; UniProt P02663 180-218, looked up, fragment) | antibacterial activity (bacteria): antibacterial activity |
| – | – | CNαS2-(f189-193): αS2 casein peptide 189-193, ACE inhibitor reported by Maeno et al. (13) (AMKPW; UniProt P02663 204-208, looked up, fragment) | IC50 [2]: 580 µM; antihypertensive effect in vivo [3]: do not present any significant antihypertensive effect |
| – | – | CNαS2-(f190-197): αS2 casein peptide 190-197, ACE inhibitor reported by Maeno et al. (13) (MKPWIQPK; UniProt P02663 205-212, looked up, fragment) | IC50 [2]: 300 µM; antihypertensive effect in vivo [3]: do not present any significant antihypertensive effect |
| – | – | CNαS2-(f198-202): αS2 casein peptide 198-202, ACE inhibitor reported by Maeno et al. (13) (TKVIP; UniProt P02663 213-217, looked up, fragment) | IC50 [2]: 400 µM; antihypertensive effect in vivo [3]: do not present any significant antihypertensive effect |
